{
  "source": "patent US20050137255A1",
  "about": "“Crystalline escitalopram hydrobromide and methods for preparing the same” (H. Lundbeck A/S, priority 2002, published 2005)",
  "assay_type_in_all_cases": "physicochemical",
  "key": {"[1]": {"experiment": "Stability (stated property)"}, "[2]": {"experiment": "Thermogravimetric analysis (TGA) of Form I", "details": "heated 10°/min", "description": "The sample (1-5 mg) was heated 10°/min. on a TA Instruments TGA 2950 (available from TA Instruments of New Castle, Del.). No weight loss (<0.1%) was observed up to 150° C. Decomposition began at approximately 240° C."}, "[3]": {"experiment": "Dynamic vapor sorption (DVS) of Form I"}, "[4]": {"experiment": "Exposure of crystalline material to air (hygroscopicity)", "details": "sample exposed to air"}},
  "note": "Entries after “also recorded” stand apart in the source; their conditions may differ. Counter-ions that a name gives are not always drawn.",
  "data": [
    {"smiles": "CN(C)CCC[C@@]1(c2ccc(F)cc2)OCc2cc(C#N)ccc21", "note": "[Form I, (S)-1-[3-(dimethylamino)propyl]-1-(4-fluorophenyl)-1,3-dihydro-5-isobenzofuran carbonitrile hydrobromide]", "values": [
      {"measurement": "stability", "setting": "[1]", "result": "stable"},
      {"measurement": "decomposition began", "setting": "[2]", "result": "approximately 240 °C"},
      {"measurement": "weight loss", "setting": "[2]; up to 150° C.", "result": "< 0.1", "unit": "%"},
      {"measurement": "hygroscopicity", "setting": "[3]; after water uptake at 80% relative humidity", "result": "very hygroscopic"},
      {"measurement": "water absorbed", "setting": "[3]; at 80% relative humidity, corresponds to 14%", "result": "about 3.6 mol-equivalent of water"},
      {"measurement": "water absorbed", "setting": "[3]; at 95% relative humidity", "result": "~9 mol-equivalent of water"},
      {"measurement": "water absorbed", "setting": "[3]; first run, at 80% relative humidity", "result": 14, "unit": "%"},
      {"measurement": "water absorbed", "setting": "[3]; first run, until the relative humidity exceeded 70%", "result": "no water was absorbed"},
      {"measurement": "hygroscopicity", "setting": "[3]; relative humidity less than (about) 70%, hydrobromide", "result": "not hygroscopic; also recorded: non-hygroscopic"},
      {"measurement": "hygroscopicity", "setting": "[4]", "result": "non-hygroscopic"}
    ]}
  ]
}
